{"source": "patent US20040241154A1", "about": "“Secretin for the treatment of asthma” (priority 2001, published 2004)", "key": {"[1]": {"system": "human tertiary bronchus", "experiment": "Short circuit current across human tertiary bronchus wall in modified Ussing chamber"}, "[2]": {"system": "primary human, tertiary bronchial epithelial cells", "experiment": "Cl- efflux from primary human tertiary bronchial epithelial cells (MQAE fluorescence)", "format": "cell-based", "procedure": "Ionic movement in tertiary bronchial epithelial cells was further characterised with the use of the Cl^− specific fluorescent probe MQAE (n-(ethoxycarbonylmethyl)-6-methoxyquinolinium bromide; Molecular Probes). In brief, primary human, tertiary bronchial epithelial cells were isolated as described above and cultured in a 96 well plate. On reaching confluency, cells were loaded overnight with 4 mM MQAE. Cells were washed in a chloride containing HEPES buffer, before passive Cl^− efflux was initiated by the addition of a Cl^− free buffer.\nThe experiment of example 3a above was repeated using a range of secretin concentrations from 1 to 1000 nM."}, "[3]": {"system": "epithelial cells derived from the human tertiary bronchus", "experiment": "Short circuit current in cultured tertiary bronchial epithelial cell monolayers in modified Ussing chamber", "format": "cell-based", "excerpt": "Functional effects of the secretin receptor were probed in epithelial cells derived from the human tertiary bronchus. In brief, tertiary bronchial epithelial were isolated by overnight protease digestion and then cultured until confluency on Snapwell (Costar) permeable supports. The supports were mounted in a modified Ussing chamber, and both luminal and basolateral membranes were bathed in oxygenated Krebs extracellular solution. The cells were voltage clamped to zero to allow changes in short circuit current in response to secretin to be measured. As previously described, 10 μM amiloride was initially added to the luminal membrane (FIG. 4, point a) followed by the addition of 100 nM secretin to the luminal membrane (FIG. 4, point b)."}, "[4]": {"system": "tertiary bronchial rings", "experiment": "Relaxation of carbachol precontracted human tertiary bronchial rings in organ bath", "procedure": "The bronchorelaxant properties of secretin was examined in vitro, in the tertiary bronchus of non-diseased tissue. […] Tissues were precontracted with carbachol at the concentration being that which caused a contraction approximately 60-70% of the maximum, and a cumulative concentration-effect contractile curve (CEC) to secretin (0.01 μM to 3 μM) was constructed on each preparation."}, "[5]": {"settings": "10 μM ATP or UTP added to apical membrane of the lung epithelium"}}, "data": [{"smiles": "Nc1ncnc2c1ncn2[C@@H]1O[C@H](COP(=O)(O)OP(=O)(O)OP(=O)(O)O)[C@@H](O)[C@H]1O", "note": "[ATP]", "values": [{"measurement": "ionic movement (short circuit current)", "setting": "[1]; [5]", "result": "stimulate a similar ionic movement of similar magnitude"}]}, {"smiles": "O=C(O)c1cc([N+](=O)[O-])ccc1NCCCc1ccccc1", "note": "[NPPB, 5-nitro-2-(3-phenylpropyl-amino)benzoic acid]", "values": [{"measurement": "effect on 100 nM secretin mediated changes in fluorescence", "setting": "[2]; 100 μM NPPB", "result": "abolished"}]}, {"smiles": "O=c1ccn([C@@H]2O[C@H](COP(=O)(O)OP(=O)(O)OP(=O)(O)O)[C@@H](O)[C@H]2O)c(=O)[nH]1", "note": "[UTP]", "values": [{"measurement": "ionic movement (short circuit current)", "setting": "[1]; [5]", "result": "stimulate a similar ionic movement of similar magnitude"}]}, {"smiles": "COc1ccc(Cl)cc1C(=O)NCCc1ccc(S(=O)(=O)NC(=O)NC2CCCCC2)cc1", "note": "[glibenclamide]", "values": [{"measurement": "suppression of secretin mediated ionic movement", "setting": "[3]; 500 μM glibenclamide after 100 nM secretin", "result": "failed to suppress secretin mediated ionic movement"}]}, {"smiles": "CC(C)C[C@H](NC(=O)CNC(=O)[C@H](CCC(N)=O)NC(=O)[C@H](CC(C)C)NC(=O)[C@H](CC(C)C)NC(=O)[C@H](CCCNC(=N)N)NC(=O)[C@H](CCC(N)=O)NC(=O)[C@H](CC(C)C)NC(=O)[C@H](CCCNC(=N)N)NC(=O)[C@H](C)NC(=O)CNC(=O)[C@H](CCC(=O)O)NC(=O)[C@H](CCCNC(=N)N)NC(=O)[C@H](CC(C)C)NC(=O)[C@H](CCCNC(=N)N)NC(=O)[C@H](CO)NC(=O)[C@H](CC(C)C)NC(=O)[C@H](CCC(=O)O)NC(=O)[C@H](CO)NC(=O)[C@@H](NC(=O)[C@H](Cc1ccccc1)NC(=O)[C@@H](NC(=O)CNC(=O)[C@H](CC(=O)O)NC(=O)[C@H](CO)NC(=O)[C@@H](N)Cc1c[nH]cn1)[C@@H](C)O)[C@@H](C)O)C(=O)N[C@H](C(N)=O)C(C)C", "note": "[secretin]", "values": [{"measurement": "ionic movement (short circuit current)", "setting": "[1]; 3 μM human secretin added to luminal membrane after 10 μM amiloride, non-asthma donors", "result": "stimulate ionic movement in a manner consistent with the movement of a negatively charged ion"}, {"measurement": "Cl- efflux (changes in MQAE fluorescence)", "setting": "[2]; 12.5 nM secretin", "result": "stimulated Cl^− efflux"}, {"measurement": "Cl- efflux (changes in MQAE fluorescence)", "setting": "[2]; 100 nM secretin", "result": "stimulated Cl^− efflux"}, {"measurement": "Maximal secretin stimulated Cl- efflux", "setting": "[2]; compared with Prostaglandin E2 (10 μM), secretin 1 to 1000 nM", "result": "of a similar magnitude to that observed to Prostaglandin E2"}, {"measurement": "Log EC50 (M), Cl- efflux", "setting": "[2]; printed as negative Log EC50, mean ± s.e.mean, 2 to 6 independent experiments, cells from 6 donors, normalised to PGE2", "result": "-7.64±0.24", "unit": "M"}, {"measurement": "ionic movement (short circuit current)", "setting": "[3]; 100 nM secretin added to luminal membrane after 10 μM amiloride", "result": "stimulated ionic movement in a manner consistent with the movement of a negatively charged ion"}, {"measurement": "mean pEC50, relaxation", "setting": "[4]; carbachol precontracted tertiary bronchial rings", "result": "6.8±0.2"}, {"measurement": "relaxations of the carbachol-evoked tone", "setting": "[4]; secretin 0.01 μM to 3 μM, in 7 of the 8 preparations tested", "result": "concentration-dependent relaxations"}, {"measurement": "mean relaxation as % of the relaxation observed to isoprenaline (1 μM)", "setting": "[4]; secretin 3 μM, n=7 preparations from 4 donors", "result": "37±11", "unit": "%"}]}]}
